Assays:
[1] = Time taken to reduce 50% of the concentration of compound in blood plasma; type: ADME, tissue-based; settings: human
Neutrophil elastase = molecular target: T1, Neutrophil elastase (Homo sapiens, UniProt P08246); test: Compound was tested for its activity against human leukocyte elastase(HLE)
T1 sequence (P08246 whole entry): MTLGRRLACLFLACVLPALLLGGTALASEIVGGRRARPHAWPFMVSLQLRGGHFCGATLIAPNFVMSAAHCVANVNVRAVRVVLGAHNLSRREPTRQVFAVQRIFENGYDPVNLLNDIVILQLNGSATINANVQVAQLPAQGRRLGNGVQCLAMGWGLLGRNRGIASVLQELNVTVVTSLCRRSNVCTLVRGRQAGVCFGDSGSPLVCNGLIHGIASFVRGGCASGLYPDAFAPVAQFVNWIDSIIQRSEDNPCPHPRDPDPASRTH

Pancreatic elastase = Pancreatic elastase (Sus scrofa, UniProt P08419+P00772); test: Compound was tested for its activity against porcine Pancreatic elastase; type: protein assay
Chymotrypsinogen A = Chymotrypsinogen A (Bos taurus, UniProt P00766); test: Compound was tested for its activity against bovine pancreatic Alpha-chymotrypsin (BPC)

CCN(Cc1ccccc1)C(=O)N1C(=O)C[C@@H]1Cc1ccccc1 showed a half-life [1] of 48 h.
In the case of CO[C@@H]1C(=O)N(C(=O)NCc2ccncc2)[C@H]1Cc1ccccc1, the IC50 (Neutrophil elastase) is reported as 0.9 µM, the half-life [1] is reported as < 12 h and the IC50 (Pancreatic elastase) is reported as 0.3 µM. The IC50 (Chymotrypsinogen A) was 38 µM.
With CS[C@@H]1C(=O)N(C(=O)NCc2ccncc2)[C@H]1Cc1ccccc1 the IC50 (Neutrophil elastase) was < 0.2 µM, the half-life [1] was < 12 h and the IC50 (Pancreatic elastase) was < 0.2 µM. For the same molecule, the IC50 (Chymotrypsinogen A) was 2.2 µM.
In the case of O=C1C[C@H](Cc2ccccc2)N1C(=O)NC1CCCCC1, the half-life [1] is reported as 24 h.
Molecule CN(Cc1ccccc1)C(=O)N1C(=O)C[C@@H]1Cc1ccccc1 has a half-life [1] of 36 h.
With O=C1C[C@H](Cc2ccccc2)N1C(=O)NCc1ccncc1 the IC50 (Neutrophil elastase) was > 75 µM, the half-life [1] was 24 h and the IC50 (Pancreatic elastase) was > 75 µM. The IC50 (Chymotrypsinogen A) was > 75 µM.
With O=C1C[C@H](Cc2ccccc2)N1C(=O)Nc1ccc(F)cc1 the half-life [1] was < 12 h.
C[C@@H]1C(=O)N(C(=O)NCc2ccncc2)[C@H]1Cc1ccccc1 showed a half-life [1] of 36 h and an IC50 (Pancreatic elastase) of 53 µM.
In the case of COc1ccc(NC(=O)N2C(=O)C[C@@H]2Cc2ccccc2)cc1, the half-life [1] is reported as 12 h.
In the case of CC1(C)C(=O)N(C(=O)NCc2ccncc2)[C@H]1Cc1ccccc1, the IC50 (Neutrophil elastase) is reported as 3 µM, the half-life [1] is reported as 120 h and the IC50 (Pancreatic elastase) is reported as 45 µM. The IC50 (Chymotrypsinogen A) was > 75 µM.
For O=C1C[C@H](Cc2ccccc2)N1C(=O)NCc1ccccn1, the half-life [1] was 36 h.
In the case of CON(Cc1ccccc1)C(=O)N1C(=O)C[C@@H]1Cc1ccccc1, the half-life [1] is reported as < 12 h.
In the case of Cc1ccc(NC(=O)N2C(=O)C[C@@H]2Cc2ccccc2)cc1, the half-life [1] is reported as < 12 h.
In the case of CC1(C)C(=O)N(C(=O)NCc2ccncc2)C1Cc1ccccc1 (single isomer, unassigned), the half-life [1] is reported as 120 h.
For O=C1C[C@H](Cc2ccccc2)N1C(=O)N(Cc1ccccc1)OCc1ccccc1, the half-life [1] was < 12 h.
Molecule C[C@H]1C(=O)N(C(=O)NCc2ccncc2)[C@H]1Cc1ccccc1 has a half-life [1] of 36 h and an IC50 (Pancreatic elastase) of 19 µM.
For O=C1C[C@H](Cc2ccccc2)N1C(=O)Nc1ccccc1, the half-life [1] was < 12 h.
Work on CC[C@@H]1C(=O)N(C(=O)NCc2ccncc2)[C@H]1Cc1ccccc1 yielded a half-life [1] of 48 h, an IC50 (Pancreatic elastase) of 1.7 µM and an IC50 (Chymotrypsinogen A) of 19 µM.
In the case of O=C1C[C@H](Cc2ccccc2)N1C(=O)NCCc1ccccc1, the half-life [1] is reported as 36 h.
In the case of O=C1C[C@H](Cc2ccccc2)N1C(=O)NCc1ccccc1, the half-life [1] is reported as 36 h.
Work on O=C1C[C@H](Cc2ccccc2)N1C(=O)N(Cc1ccccc1)C1CC1 yielded a half-life [1] of 48 h.
Work on C=CC[C@@H]1C(=O)N(C(=O)NCc2ccncc2)[C@H]1Cc1ccccc1 yielded an IC50 (Neutrophil elastase) of 0.3 µM, a half-life [1] of 36 h and an IC50 (Pancreatic elastase) of 4.7 µM. For the same molecule, the IC50 (Chymotrypsinogen A) was 6 µM.
For O=C1C[C@H](Cc2ccccc2)N1C(=O)NCc1cccnc1, the half-life [1] was 24 h.
